Experimental data from patent US20250120932A1, “PHARMACEUTICAL COMPOSITION” (NEUROPRO THERAPEUTICS, INC., priority 2021, published 2025).
Several values for one entry are separate records, joined by “and”; a condition that tells them apart may be missing. Equal values may be shown once.

Experiments:
[1] = Pharmacokinetic study in cynomolgus monkeys after oral (nasogastric) gavage, sublingual and intravenous administration; format: in vivo; settings: monkey, individual animals
Procedure: A pharmacokinetic study was done in cynomolgus monkeys following single oral (nasogastric) gavage, sublingual, and intravenous administration. […] Calibration curves, blanks, and analytical QCs were prepared in monkey plasma (K2EDTA). The extracts were evaporated to dryness, reconstituted, and then analyzed by LC-MS/MS. The calibration range was 0.250-250 ng/mL for both analytes.
If the criteria for either the calibration curve or the analytical QCs were not met, the analytical run was rejected. […] No deviations were found during the bioanalytical phase of the study conducted by Origin. Calibration curves were derived from the individual analyte to internal standard peak area ratios using the least squared regression of the ratio versus the nominal concentration of the calibration standard, prepared in duplicate. The regression was then used to back-calculate the concentration of each calibration standard, QC sample and study sample. […] Analyst® Software Version 1.6.3 (Applied Biosystems-MDS Sciex), operated with Windows® (Microsoft), was used for instrument control, data acquisition, and peak integrations. Peak area ratios, standard curve regressions, and sample concentration/accuracy values were calculated with Analyst® Software Version 1.6.3. Other results (e.g., mean statistics) were calculated with Excel® (Microsoft).
There was no apparent sex difference for the second formulation. […] A fourth formulation comprising the composition B listed in Table 54 was also administered in monheys.

[2] = Prototype capsule (SEDDS) development: solubilization and dispersion test in water; format: physicochemical; settings: capsule compositions with long chain triglycerides and 0 to 4.68% w/w ethanol
Procedure: Prototype capsule formulations were developed at a less than 2-gram scale. […] The oil phase was then added to the formulations and stirred until the solution became clear. The solutions were cooled to room temperature while stirring and co-solvent was then added (if applicable).
To test if the composition created macro-dispersions or micro-dispersions, about 30 mg of formulation was added into 1.0 g of water and lightly swirled. The resultant dispersion was visually characterized. SEDDS (macroemulsions) are typically characterized as an opaque milky white uniform liquid, and SEDDS (microemulsions) are characterized by a clear, isotropic, transparent solution with opalescence. […] Compositions 4 and 6 were selected for future development work, and the intermediate stability of those compositions was evaluated as described below.

Structure (SMILES): CCCCNc1cc(C(=O)N(Cc2ccccc2)Cc2ccccc2)cc(S(N)(=O)=O)c1Oc1ccccc1 [Bumetanide Dibenzylamide, N, N-dibenzyl 3-aminosulfonyl-5-butylamino-4-phenoxybenzamide]
- Plasma Bumetanide Dibenzylamide concentration ([1]; NG 30 mg/kg, First Formulation (Form 1), 2.00 h, female monkeys): 11.1 ng/mL and 8.35 ng/mL
- Plasma Bumetanide Dibenzylamide concentration ([1]; NG 30 mg/kg, First Formulation (Form 1), 2.00 h, male monkeys): 157 ng/mL and 74.0 ng/mL
- Plasma Bumetanide Dibenzylamide concentration ([1]; NG 30 mg/kg, First Formulation (Form 1), 4.00 h, female monkeys): 9.83 ng/mL and 23.8 ng/mL
- Plasma Bumetanide Dibenzylamide concentration ([1]; NG 30 mg/kg, First Formulation (Form 1), 4.00 h, male monkeys): 182 ng/mL and 51.4 ng/mL
- Plasma Bumetanide Dibenzylamide concentration ([1]; NG 30 mg/kg, First Formulation (Form 1), 8.00 h, female monkeys): 17.5 ng/mL and 17.0 ng/mL
- Plasma Bumetanide Dibenzylamide concentration ([1]; NG 30 mg/kg, First Formulation (Form 1), 8.00 h, male monkeys): 99.9 ng/mL and 45.1 ng/mL
- Plasma Bumetanide Dibenzylamide concentration ([1]; NG 30 mg/kg, First Formulation (Form 1), 24.00 h, female monkeys): 3.28 ng/mL and 2.02 ng/mL
- Plasma Bumetanide Dibenzylamide concentration ([1]; NG 30 mg/kg, First Formulation (Form 1), 24.00 h, male monkeys): 21.6 ng/mL and 7.47 ng/mL
- Plasma Bumetanide Dibenzylamide concentration ([1]; NG 30 mg/kg, First Formulation (Form 1), 32.00 h, female monkeys): 0.790 ng/mL and 1.37 ng/mL
- Plasma Bumetanide Dibenzylamide concentration ([1]; NG 30 mg/kg, First Formulation (Form 1), 32.00 h, male monkeys): 9.75 ng/mL and 6.13 ng/mL
- Plasma Bumetanide Dibenzylamide concentration ([1]; NG 30 mg/kg, Second Formulation (Form 3), 0.00 h, female monkeys): 0.00 ng/mL
- Plasma Bumetanide Dibenzylamide concentration ([1]; NG 30 mg/kg, Second Formulation (Form 3), 0.00 h, male monkeys): 0.00 ng/mL
- Plasma Bumetanide Dibenzylamide concentration ([1]; NG 30 mg/kg, Second Formulation (Form 3), 0.25 h, female monkeys): 0.619 ng/mL and 0.261 ng/mL
- Plasma Bumetanide Dibenzylamide concentration ([1]; NG 30 mg/kg, Second Formulation (Form 3), 0.25 h, male monkeys): 0.250 ng/mL and 0.00 ng/mL
- Plasma Bumetanide Dibenzylamide concentration ([1]; NG 30 mg/kg, Second Formulation (Form 3), 0.50 h, female monkeys): 4.98 ng/mL and 1.71 ng/mL
- Plasma Bumetanide Dibenzylamide concentration ([1]; NG 30 mg/kg, Second Formulation (Form 3), 0.50 h, male monkeys): 1.55 ng/mL and 3.16 ng/mL
- Plasma Bumetanide Dibenzylamide concentration ([1]; NG 30 mg/kg, Second Formulation (Form 3), 1.00 h, female monkeys): 20.2 ng/mL and 7.09 ng/mL
- Plasma Bumetanide Dibenzylamide concentration ([1]; NG 30 mg/kg, Second Formulation (Form 3), 1.00 h, male monkeys): 7.56 ng/mL and 11.3 ng/mL
- Plasma Bumetanide Dibenzylamide concentration ([1]; NG 30 mg/kg, Second Formulation (Form 3), 2.00 h, female monkeys): 79.3 ng/mL and 37.8 ng/mL
- Plasma Bumetanide Dibenzylamide concentration ([1]; NG 30 mg/kg, Second Formulation (Form 3), 2.00 h, male monkeys): 16.8 ng/mL and 82.5 ng/mL
- Plasma Bumetanide Dibenzylamide concentration ([1]; NG 30 mg/kg, Second Formulation (Form 3), 4.00 h, female monkeys): 140 ng/mL and 247 ng/mL
- Plasma Bumetanide Dibenzylamide concentration ([1]; NG 30 mg/kg, Second Formulation (Form 3), 4.00 h, male monkeys): 126 ng/mL and 410 ng/mL
- Plasma Bumetanide Dibenzylamide concentration ([1]; NG 30 mg/kg, Second Formulation (Form 3), 8.00 h, female monkeys): 457 ng/mL and 674 ng/mL
- Plasma Bumetanide Dibenzylamide concentration ([1]; NG 30 mg/kg, Second Formulation (Form 3), 8.00 h, male monkeys): 785 ng/mL
- Plasma Bumetanide Dibenzylamide concentration ([1]; NG 30 mg/kg, Second Formulation (Form 3), 24.00 h, female monkeys): 9.30 ng/mL and 10.7 ng/mL
- Plasma Bumetanide Dibenzylamide concentration ([1]; NG 30 mg/kg, Second Formulation (Form 3), 24.00 h, male monkeys): 26.4 ng/mL and 8.13 ng/mL
- Plasma Bumetanide Dibenzylamide concentration ([1]; NG 30 mg/kg, Second Formulation (Form 3), 32.00 h, female monkeys): 1.63 ng/mL and 1.62 ng/mL
- Plasma Bumetanide Dibenzylamide concentration ([1]; NG 30 mg/kg, Second Formulation (Form 3), 32.00 h, male monkeys): 6.41 ng/mL and 2.08 ng/mL
- Plasma Bumetanide Dibenzylamide concentration ([1]; SL, dose column 5 mg/kg (title 30 mg/kg), Fourth Formulation (Form 2), 4.0 h): 0.00 ng/mL
- Plasma Bumetanide Dibenzylamide concentration ([1]; SL, dose column 5 mg/kg (title 30 mg/kg), Fourth Formulation (Form 2), 8.0 h): 0.380 ng/mL
- Plasma Bumetanide Dibenzylamide concentration ([1]; SL, dose column 5 mg/kg (title 30 mg/kg), Fourth Formulation (Form 2), 24.0 h): 0.363 ng/mL
- Plasma Bumetanide Dibenzylamide concentration ([1]; SL, dose column 5 mg/kg (title 30 mg/kg), Fourth Formulation (Form 2), 32.0 h): 0.00 ng/mL
- maximum solubility of Bumetanide Dibenzylamide [2]: about 1.8 % w/w
